Columns and labels:
[1] = molecular target: T1, Activin receptor type-1 (Homo sapiens) (UniProt Q04771); test: Inhibition of human ALK2 at 18.6 nM by HotSpot assay relative to control
T1 sequence (whole entry): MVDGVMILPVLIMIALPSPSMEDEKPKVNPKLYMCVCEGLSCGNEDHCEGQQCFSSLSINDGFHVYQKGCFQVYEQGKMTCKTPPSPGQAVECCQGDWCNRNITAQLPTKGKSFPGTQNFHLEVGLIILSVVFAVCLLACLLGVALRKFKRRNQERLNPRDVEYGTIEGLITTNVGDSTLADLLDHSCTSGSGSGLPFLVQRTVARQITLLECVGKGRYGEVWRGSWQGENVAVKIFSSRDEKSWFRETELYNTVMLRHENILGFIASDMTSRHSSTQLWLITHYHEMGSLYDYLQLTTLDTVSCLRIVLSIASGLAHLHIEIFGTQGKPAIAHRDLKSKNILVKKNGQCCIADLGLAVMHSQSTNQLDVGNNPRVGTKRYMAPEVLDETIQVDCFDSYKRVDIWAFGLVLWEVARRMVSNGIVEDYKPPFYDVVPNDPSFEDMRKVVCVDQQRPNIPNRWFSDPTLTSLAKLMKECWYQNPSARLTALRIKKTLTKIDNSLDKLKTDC

[2] = molecular target: T2, Protein kinase C zeta type (Homo sapiens) (UniProt Q05513); test: Inhibition of human PKCzeta at 18.6 nM by HotSpot assay relative to control
T2 sequence (whole entry): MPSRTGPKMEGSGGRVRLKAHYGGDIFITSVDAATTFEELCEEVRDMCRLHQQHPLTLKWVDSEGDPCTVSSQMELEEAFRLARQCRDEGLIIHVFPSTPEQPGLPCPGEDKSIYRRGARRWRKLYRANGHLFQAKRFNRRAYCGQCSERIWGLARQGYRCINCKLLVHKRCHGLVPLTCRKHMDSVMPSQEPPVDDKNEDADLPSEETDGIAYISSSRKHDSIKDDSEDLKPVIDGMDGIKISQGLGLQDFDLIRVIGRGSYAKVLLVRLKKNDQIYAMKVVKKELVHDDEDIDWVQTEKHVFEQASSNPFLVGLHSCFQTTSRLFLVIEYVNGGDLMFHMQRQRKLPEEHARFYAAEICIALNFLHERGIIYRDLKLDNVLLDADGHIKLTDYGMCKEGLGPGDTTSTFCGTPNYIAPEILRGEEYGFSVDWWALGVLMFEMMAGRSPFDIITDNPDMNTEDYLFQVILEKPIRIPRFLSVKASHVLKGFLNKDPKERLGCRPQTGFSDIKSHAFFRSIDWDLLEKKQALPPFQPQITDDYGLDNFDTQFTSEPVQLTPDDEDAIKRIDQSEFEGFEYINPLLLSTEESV

[3] = molecular target: T3, cGMP-dependent protein kinase 1 (Homo sapiens) (UniProt Q13976); test: Inhibition of human PKG1b at 18.6 nM by HotSpot assay relative to control
T3 sequence (whole entry): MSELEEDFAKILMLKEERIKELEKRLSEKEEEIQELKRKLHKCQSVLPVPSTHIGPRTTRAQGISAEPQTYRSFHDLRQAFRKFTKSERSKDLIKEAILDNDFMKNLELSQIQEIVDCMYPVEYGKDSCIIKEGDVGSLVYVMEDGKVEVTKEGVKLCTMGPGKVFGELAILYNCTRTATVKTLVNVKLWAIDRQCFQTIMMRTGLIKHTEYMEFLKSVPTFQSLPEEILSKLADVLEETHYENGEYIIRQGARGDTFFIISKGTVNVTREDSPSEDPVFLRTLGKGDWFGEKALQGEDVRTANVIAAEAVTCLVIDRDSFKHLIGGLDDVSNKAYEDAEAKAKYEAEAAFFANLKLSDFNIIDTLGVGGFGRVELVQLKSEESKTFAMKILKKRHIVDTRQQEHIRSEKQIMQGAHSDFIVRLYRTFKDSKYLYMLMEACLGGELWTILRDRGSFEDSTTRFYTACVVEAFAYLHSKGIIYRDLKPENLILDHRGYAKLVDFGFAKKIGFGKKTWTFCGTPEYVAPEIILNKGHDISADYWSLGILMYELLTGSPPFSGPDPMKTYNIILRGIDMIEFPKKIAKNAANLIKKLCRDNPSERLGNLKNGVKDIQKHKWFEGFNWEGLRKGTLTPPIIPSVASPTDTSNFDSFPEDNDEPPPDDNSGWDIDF

[4] = molecular target: MAP kinase-interacting serine/threonine-protein kinase 2 (Homo sapiens) (UniProt Q9HBH9); test: Inhibition of human MNK2 at 18.6 nM by HotSpot assay relative to control
[5] = molecular target: Serine/threonine-protein kinase 26 (Homo sapiens) (UniProt Q9P289); test: Inhibition of human MST4 at 18.6 nM by HotSpot assay relative to control
[6] = molecular target: T4, Inhibitor of nuclear factor kappa-B kinase subunit beta (Homo sapiens) (UniProt O14920); test: Inhibition of human IKKb at 18.6 nM by HotSpot assay relative to control
T4 sequence (whole entry): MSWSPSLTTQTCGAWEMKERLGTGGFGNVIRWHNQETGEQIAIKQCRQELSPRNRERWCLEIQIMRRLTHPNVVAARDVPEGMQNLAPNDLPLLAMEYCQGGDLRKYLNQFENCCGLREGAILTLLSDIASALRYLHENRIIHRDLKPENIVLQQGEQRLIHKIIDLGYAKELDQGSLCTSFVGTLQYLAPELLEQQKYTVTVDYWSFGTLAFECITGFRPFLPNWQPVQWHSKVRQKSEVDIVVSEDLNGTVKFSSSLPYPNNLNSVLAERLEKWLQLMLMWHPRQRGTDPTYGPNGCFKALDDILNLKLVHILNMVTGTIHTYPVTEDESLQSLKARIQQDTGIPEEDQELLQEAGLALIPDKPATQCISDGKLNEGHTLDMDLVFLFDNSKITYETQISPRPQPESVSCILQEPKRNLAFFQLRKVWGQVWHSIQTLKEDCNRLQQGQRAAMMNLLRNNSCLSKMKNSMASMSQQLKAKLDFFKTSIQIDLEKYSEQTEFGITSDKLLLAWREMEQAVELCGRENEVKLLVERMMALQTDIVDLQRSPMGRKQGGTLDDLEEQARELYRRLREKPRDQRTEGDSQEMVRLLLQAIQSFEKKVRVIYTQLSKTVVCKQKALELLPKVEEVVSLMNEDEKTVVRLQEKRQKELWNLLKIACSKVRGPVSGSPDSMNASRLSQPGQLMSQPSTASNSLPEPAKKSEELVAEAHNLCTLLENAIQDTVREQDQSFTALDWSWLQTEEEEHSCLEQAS

[7] = molecular target: Serine/threonine-protein kinase Chk2 (Homo sapiens) (UniProt O96017); test: Inhibition of human CHK2 at 1.82 nM by HotSpot assay relative to control
[8] = molecular target: Calcium/calmodulin-dependent protein kinase type 1B (Homo sapiens) (UniProt Q6P2M8); test: Inhibition of human CAMK1b at 1.82 nM by HotSpot assay relative to control
[9] = molecular target: G protein-coupled receptor kinase 4 (Homo sapiens) (UniProt P32298); test: Inhibition of human GRK4 at 1.82 nM by HotSpot assay relative to control
G protein-coupled receptor kinase 4 (Homo sapiens), sequence (P32298 whole entry, looked up): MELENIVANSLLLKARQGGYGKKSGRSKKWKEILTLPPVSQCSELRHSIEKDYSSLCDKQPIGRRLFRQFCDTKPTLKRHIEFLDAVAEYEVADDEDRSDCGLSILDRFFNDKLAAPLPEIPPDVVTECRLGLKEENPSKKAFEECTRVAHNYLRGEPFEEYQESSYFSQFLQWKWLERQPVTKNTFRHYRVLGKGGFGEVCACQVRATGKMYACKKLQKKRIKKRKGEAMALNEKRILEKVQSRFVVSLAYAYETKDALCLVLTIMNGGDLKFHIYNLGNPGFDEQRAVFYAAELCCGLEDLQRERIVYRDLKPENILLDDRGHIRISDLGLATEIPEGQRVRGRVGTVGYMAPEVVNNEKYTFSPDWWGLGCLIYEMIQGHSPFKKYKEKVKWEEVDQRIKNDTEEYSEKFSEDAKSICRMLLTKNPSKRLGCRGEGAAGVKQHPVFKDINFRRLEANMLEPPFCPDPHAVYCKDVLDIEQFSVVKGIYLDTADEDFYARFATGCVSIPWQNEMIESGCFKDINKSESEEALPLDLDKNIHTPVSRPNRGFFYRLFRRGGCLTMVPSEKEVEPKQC

Serine/threonine-protein kinase 26 (Homo sapiens), sequence (Q9P289 2-416 limits assumed): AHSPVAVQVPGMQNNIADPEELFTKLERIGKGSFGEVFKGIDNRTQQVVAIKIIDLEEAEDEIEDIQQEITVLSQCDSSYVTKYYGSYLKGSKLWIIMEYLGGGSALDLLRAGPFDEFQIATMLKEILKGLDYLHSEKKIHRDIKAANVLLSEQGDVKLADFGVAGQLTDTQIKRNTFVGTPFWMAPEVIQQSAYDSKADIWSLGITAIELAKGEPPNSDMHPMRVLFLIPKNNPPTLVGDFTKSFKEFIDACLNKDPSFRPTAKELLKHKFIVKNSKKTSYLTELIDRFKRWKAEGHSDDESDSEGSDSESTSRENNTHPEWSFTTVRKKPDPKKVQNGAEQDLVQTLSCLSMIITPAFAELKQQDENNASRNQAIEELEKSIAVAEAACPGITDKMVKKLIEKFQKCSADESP
Calcium/calmodulin-dependent protein kinase type 1B (Homo sapiens), sequence (Q6P2M8 whole entry): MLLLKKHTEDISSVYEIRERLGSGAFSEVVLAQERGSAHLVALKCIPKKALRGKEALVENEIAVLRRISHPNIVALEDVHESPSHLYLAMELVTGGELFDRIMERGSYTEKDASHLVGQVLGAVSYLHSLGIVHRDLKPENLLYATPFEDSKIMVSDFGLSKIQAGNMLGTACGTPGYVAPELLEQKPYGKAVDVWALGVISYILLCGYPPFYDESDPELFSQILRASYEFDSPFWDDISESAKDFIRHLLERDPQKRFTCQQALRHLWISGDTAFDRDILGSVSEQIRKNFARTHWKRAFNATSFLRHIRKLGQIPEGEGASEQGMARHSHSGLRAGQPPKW
MAP kinase-interacting serine/threonine-protein kinase 2 (Homo sapiens), sequence (Q9HBH9 whole entry, looked up): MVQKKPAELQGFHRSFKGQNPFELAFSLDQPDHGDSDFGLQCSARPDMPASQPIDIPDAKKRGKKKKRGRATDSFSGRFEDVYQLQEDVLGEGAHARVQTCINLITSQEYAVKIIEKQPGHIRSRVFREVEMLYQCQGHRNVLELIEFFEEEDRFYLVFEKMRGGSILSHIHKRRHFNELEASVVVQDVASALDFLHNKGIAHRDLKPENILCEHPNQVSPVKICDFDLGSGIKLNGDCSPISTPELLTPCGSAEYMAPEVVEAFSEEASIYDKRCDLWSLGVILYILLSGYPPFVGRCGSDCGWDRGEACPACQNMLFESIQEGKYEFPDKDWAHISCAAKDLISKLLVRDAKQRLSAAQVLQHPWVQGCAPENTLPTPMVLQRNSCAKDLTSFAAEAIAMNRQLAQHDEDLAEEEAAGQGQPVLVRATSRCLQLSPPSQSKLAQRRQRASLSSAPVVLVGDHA
Serine/threonine-protein kinase Chk2 (Homo sapiens), sequence (O96017 whole entry): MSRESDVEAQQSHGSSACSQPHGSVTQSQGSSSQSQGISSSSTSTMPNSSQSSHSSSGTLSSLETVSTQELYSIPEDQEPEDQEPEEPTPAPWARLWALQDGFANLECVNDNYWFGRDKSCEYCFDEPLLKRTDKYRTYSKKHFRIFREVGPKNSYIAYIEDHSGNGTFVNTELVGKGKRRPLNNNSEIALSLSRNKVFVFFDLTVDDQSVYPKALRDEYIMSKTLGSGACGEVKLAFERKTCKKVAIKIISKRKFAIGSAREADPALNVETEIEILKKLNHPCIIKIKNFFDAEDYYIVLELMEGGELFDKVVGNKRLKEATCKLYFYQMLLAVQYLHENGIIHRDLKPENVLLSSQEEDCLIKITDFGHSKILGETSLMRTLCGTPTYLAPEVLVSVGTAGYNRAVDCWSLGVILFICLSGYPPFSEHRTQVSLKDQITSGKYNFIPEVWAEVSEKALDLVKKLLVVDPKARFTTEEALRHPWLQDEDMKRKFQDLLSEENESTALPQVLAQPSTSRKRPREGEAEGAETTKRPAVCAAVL

inhibition [1] | inhibition [2] | inhibition [3] | inhibition [4] | inhibition [5] | inhibition [6] | inhibition [7] | inhibition [8] | inhibition [9] | Compound
1.44% | -2.9% | -6.35% | -3.65% | -2.21% | -2.87% | – | – | – | C[C@]1(O)C[C@@H](c2nc(-c3ccc4ccc(-c5ccccc5)nc4c3)c3c(N)nccn32)C1
– | – | – | – | – | – | 0.29% | -2.9% | 0.72% | C[C@@]1(C(=O)Nc2ccc(F)nc2)CCCN1c1nc(Nc2cc(C3CC3)n[nH]2)c2cccn2n1

Source: ChEMBL document CHEMBL5653615 (J Biol Chem, 2013)
